“Also recorded” adds a separate entry of the source.
Legend:
[1] = tested on: insoluble TDP-43; experiment: Cell fractionation and immunoblot of TDP-43 in MG-132 challenged human motor neurons; format: cell-based; conditions: 500 nM Compound 183 with MG-132 1 μM
Procedure: Cell culture and differentiation of iPS Cells into motor neurons. Pluripotent stem cells were grown with mTeSR Plus medium on tissue culture dishes coated with Matrigel, and maintained in 5% CO2 incubators at 37° C. Stem cells were passaged as small aggregates of cells after 1 mM EDTA treatment. […] was added to the cultures for 16-24 h after dissociation to prevent cell death. The iP11NA iPS cell line was acquired from ALSTEM. This cell line was generated from pre-made footprint-free human iPS cells with DOX inducible Ngn2 that has been stably integrated into the human AAVS1 “Safe Harbor” site, and provides a convenient means to differentiate human iPS cells into neurons rapidly and efficiently. Motor neuron differentiation was achieved using a modified 5-day strategy. […]
For analysis of TDP-43 cellular distribution, d14 motor neurons were lysed with Thermo Subcellular Protein Fractionation Kit for cultured cells and processed according to the manufacturer's instructions. […] Fluorescent secondary antibodies were used for band detection and the Kaleidoscope precision plus protein ladder for size estimation. iBright FL1500 imaging system and software were used to quantitate protein band signal. […]

[2] = tested on: TDP-43 splicing function; experiment: qRT-PCR of TDP-43 sentinel transcripts (STMN2, ELAVL3, PFKP) in MG-132 challenged human motor neurons; format: cell-based
Procedure: Cell culture and differentiation of iPS Cells into motor neurons. Pluripotent stem cells were grown with mTeSR Plus medium on tissue culture dishes coated with Matrigel, and maintained in 5% CO2 incubators at 37° C. Stem cells were passaged as small aggregates of cells after 1 mM EDTA treatment. […] was added to the cultures for 16-24 h after dissociation to prevent cell death. The iP11NA iPS cell line was acquired from ALSTEM. This cell line was generated from pre-made footprint-free human iPS cells with DOX inducible Ngn2 that has been stably integrated into the human AAVS1 “Safe Harbor” site, and provides a convenient means to differentiate human iPS cells into neurons rapidly and efficiently. Motor neuron differentiation was achieved using a modified 5-day strategy.
This approach relies on neural induction through small molecule inhibition of SMAD signaling, accelerated neural differentiation through forced Ngn2 expression, and motor neuron patterning through the activation of retinoic acid and Sonic Hedgehog signaling pathways. In brief, pluripotent stem cells were dissociated to single cells using accutase and plated at a density of 80,000 cells per cm^2 on Matrigel-coated culture plates with mTeSR Plus medium supplemented with ROCK inhibitor (10 μM Y-27632, ATCC). When cells reached 50% confluency, medium was changed to differentiation medium BrainPhys medium supplemented with N2-A, SM1, […]. This time point was defined as day 0 (d0) of motor neuron differentiation. Treatment with small molecules was carried out as follows: 2 μg/mL Doxycyline, 10 μM SB431542, 100 nM LDN-193189, […] and 1 μM Smoothend agonist and 10 uM Edu. The full list of materials and their descriptions is included below in Table 5.
Total RNA was isolated from d14 motor neurons for qRT-PCR assays using TaqMan™ Fast Advanced Cells-to-CT™ Kit according to manufacturer's instructions. 7500 neurons per well of 96-well culture were routinely used for processing. qRT-PCR was then performed using multiplex assays from IDT using PrimeTime™ Gene Expression Master Mix (IDT) on a QuantStudio6Pro system. Quantitative levels for all genes assayed were normalized using GAPDH expression. […] Primers and probes used in this study are in Table 5.
To this end, we first examined whether proteasome inhibition, which triggers TDP-43 nuclear depletion, also leads to splicing defects associated with TDP-43 loss-of function. For comparison, we also treated human motor neurons with puromycin, which recruits TDP-43 to stress granules in the cytoplasm. We chose to analyze several transcripts that have relevant connections to ALS biology including STMN26,12, PFKP19, and ELAVL320,21. We used quantitative reverse transcription-polymerase chain reaction (qRT-PCR) to validate that in MG-132-treated motor neurons these transcripts were altered like in ALS patients.
Using this method, we next obtained RNA from independent motor neuron biological replicates after proteasome inhibition and Compound 183 treatment to determined by qRT-PCR the relative abundance of these transcripts. […] A dose-responsive effect was further tested for Compound 183 using qRT-PCR in this model. […] Collectively, the data support the notion that Compound 183 promotes TDP-43 nuclear function under proteotoxic stress.

[3] = Compound 183 500 nM with MG-132 1 μM, relative to MG-132 control
[4] = by 500 nM, MG-132 1 μM challenged motor neurons

Cc1cc(-c2ccc(C3CCN(C(C)C)CC3)cc2)sc1C(=O)N1CC[C@H](N)C1 [Compound 183, (S)-(3-aminopyrrolidin-1-yl)(5-(4-(1-isopropylpiperidin-4-yl)phenyl)-3-methylthiophen-2-yl)methanone]
TDP-43 level in the nuclear fraction (immunoblot) [1]: the levels of TDP-43 in the nucleus were maintained; also recorded: restoring nuclear TDP-43 localization | cryptic splicing events of STMN2, ELAVL3 and PFKP (qRT-PCR) [2, 3]: nearly complete inhibition for all three cryptic splicing events | splicing of the normal transcripts, TDP-43 splicing function (qRT-PCR) [2, 3]: increased splicing of the normal transcripts; also recorded: restoring splicing function of TDP-43 | restoration of normal STMN2 and ELAVL3 levels (qRT-PCR, dose response) ([2]; MG-132 1 μM challenged motor neurons): modest in its ability to restore normal STMN2 and ELAVL3 levels | maintenance of TDP-43 splicing function, dose response (qRT-PCR) ([2]; MG-132 1 μM challenged motor neurons, effective concentration range for most transcripts): restoring TDP-43 splicing function in dose dependent manner | restoration of normal splicing of PFKP (qRT-PCR, dose response) [2, 4]: fully restored normal splicing of PFKP | suppression of cryptic splicing, all transcripts tested (qRT-PCR, dose response) [2, 4]: strong suppression of cryptic splicing

Reference: patent US20260258025A1, “INHIBITORS OF TDP-43 AND TAU AGGREGATION” (Aquinnah Pharmaceuticals, inc., priority 2023, published 2026)
